# Assay results taken from article PMC7407272, “Induction of Lysosome Membrane Permeabilization as a Therapeutic Strategy to Target Pancreatic Cancer Stem Cells” (Cancers, 2020).
# Legend:
# Assay in all cases: KINOMEscan
# Assay type in all cases: binding
# Conditions in all cases: read-out: % Ctrl
# [1] = target: T1, SRC (Homo sapiens, UniProt P12931)
# T1 construct: purchased DiscoveRx KINOMEscan
# [2] = target: T2, ASK2 (Homo sapiens, UniProt O95382)
# T2 construct: purchased DiscoveRx KINOMEscan
# [3] = target: T3, PRKR (Homo sapiens, UniProt P19525)
# T3 construct: purchased DiscoveRx KINOMEscan
# [4] = target: T4, GSK3A (Homo sapiens, UniProt P49840)
# T4 construct: purchased DiscoveRx KINOMEscan
# [5] = target: T5, MAP3K15 (Homo sapiens, UniProt Q6ZN16)
# T5 construct: purchased DiscoveRx KINOMEscan
# T5 sequence (Q6ZN16 whole entry): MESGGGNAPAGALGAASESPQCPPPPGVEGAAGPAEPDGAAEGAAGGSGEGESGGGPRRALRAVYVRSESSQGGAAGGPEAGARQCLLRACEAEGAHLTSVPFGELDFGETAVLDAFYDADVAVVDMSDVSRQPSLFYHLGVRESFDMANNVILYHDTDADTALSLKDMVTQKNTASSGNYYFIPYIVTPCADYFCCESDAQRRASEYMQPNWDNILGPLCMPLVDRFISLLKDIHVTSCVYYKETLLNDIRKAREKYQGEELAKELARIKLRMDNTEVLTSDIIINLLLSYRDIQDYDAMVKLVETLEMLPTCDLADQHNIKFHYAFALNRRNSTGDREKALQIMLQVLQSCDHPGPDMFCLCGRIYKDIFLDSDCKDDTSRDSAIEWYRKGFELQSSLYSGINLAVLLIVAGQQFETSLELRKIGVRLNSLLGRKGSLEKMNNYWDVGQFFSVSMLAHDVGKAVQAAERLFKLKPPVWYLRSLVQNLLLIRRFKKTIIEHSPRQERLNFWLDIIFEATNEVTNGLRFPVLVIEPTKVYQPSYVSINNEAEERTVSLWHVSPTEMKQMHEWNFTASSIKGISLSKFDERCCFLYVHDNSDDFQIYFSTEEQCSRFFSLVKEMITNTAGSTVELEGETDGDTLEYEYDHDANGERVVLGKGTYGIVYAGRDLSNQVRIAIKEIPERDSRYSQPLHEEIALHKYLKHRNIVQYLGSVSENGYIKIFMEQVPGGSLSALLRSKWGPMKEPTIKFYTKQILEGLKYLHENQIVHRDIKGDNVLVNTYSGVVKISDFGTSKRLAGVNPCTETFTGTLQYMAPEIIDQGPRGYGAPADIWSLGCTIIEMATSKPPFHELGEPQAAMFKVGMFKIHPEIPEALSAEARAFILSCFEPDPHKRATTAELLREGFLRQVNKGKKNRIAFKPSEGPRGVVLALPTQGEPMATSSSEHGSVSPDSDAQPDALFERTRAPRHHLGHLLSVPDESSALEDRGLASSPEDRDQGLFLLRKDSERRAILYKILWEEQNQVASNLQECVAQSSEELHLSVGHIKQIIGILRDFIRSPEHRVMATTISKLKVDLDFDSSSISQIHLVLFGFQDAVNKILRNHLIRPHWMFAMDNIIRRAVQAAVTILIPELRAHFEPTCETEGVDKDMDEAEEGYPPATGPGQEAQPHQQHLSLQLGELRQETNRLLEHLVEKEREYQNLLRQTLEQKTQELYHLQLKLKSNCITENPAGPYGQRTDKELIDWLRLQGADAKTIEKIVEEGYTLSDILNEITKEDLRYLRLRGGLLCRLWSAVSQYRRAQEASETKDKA
# [6] = target: T6, LKB1 (Homo sapiens, UniProt Q15831)
# T6 construct: purchased DiscoveRx KINOMEscan
# T6 sequence (Q15831 whole entry): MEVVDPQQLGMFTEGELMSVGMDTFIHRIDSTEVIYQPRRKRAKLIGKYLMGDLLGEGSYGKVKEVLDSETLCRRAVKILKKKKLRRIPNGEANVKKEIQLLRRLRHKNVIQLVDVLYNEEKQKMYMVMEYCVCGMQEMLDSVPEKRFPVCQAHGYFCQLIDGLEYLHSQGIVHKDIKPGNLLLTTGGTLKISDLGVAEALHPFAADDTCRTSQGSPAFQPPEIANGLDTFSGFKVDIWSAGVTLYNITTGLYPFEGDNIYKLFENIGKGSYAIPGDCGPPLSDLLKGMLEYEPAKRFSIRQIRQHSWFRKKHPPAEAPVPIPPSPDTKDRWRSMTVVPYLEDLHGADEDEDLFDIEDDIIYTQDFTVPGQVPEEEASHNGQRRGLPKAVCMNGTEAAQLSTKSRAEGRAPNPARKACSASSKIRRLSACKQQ
# [7] = target: T7, ACVR1B (Homo sapiens, UniProt P36896)
# T7 construct: purchased DiscoveRx KINOMEscan
# T7 sequence (P36896 24-505): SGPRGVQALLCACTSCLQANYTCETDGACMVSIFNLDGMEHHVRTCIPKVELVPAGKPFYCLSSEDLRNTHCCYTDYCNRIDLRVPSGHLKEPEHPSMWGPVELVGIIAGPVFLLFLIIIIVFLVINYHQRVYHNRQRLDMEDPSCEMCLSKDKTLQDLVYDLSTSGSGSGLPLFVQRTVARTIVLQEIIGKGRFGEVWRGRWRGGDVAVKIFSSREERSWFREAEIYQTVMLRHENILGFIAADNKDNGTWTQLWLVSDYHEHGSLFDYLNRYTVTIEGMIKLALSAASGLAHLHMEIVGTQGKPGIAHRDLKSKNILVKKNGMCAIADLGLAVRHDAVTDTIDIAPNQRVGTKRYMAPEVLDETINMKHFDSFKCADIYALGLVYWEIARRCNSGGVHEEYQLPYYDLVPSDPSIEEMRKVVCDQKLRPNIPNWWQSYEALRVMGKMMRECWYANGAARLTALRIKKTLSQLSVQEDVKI
# [8] = target: T8, SIK2 (Homo sapiens, UniProt Q9H0K1)
# T8 construct: purchased DiscoveRx KINOMEscan
# T8 sequence (Q9H0K1 whole entry): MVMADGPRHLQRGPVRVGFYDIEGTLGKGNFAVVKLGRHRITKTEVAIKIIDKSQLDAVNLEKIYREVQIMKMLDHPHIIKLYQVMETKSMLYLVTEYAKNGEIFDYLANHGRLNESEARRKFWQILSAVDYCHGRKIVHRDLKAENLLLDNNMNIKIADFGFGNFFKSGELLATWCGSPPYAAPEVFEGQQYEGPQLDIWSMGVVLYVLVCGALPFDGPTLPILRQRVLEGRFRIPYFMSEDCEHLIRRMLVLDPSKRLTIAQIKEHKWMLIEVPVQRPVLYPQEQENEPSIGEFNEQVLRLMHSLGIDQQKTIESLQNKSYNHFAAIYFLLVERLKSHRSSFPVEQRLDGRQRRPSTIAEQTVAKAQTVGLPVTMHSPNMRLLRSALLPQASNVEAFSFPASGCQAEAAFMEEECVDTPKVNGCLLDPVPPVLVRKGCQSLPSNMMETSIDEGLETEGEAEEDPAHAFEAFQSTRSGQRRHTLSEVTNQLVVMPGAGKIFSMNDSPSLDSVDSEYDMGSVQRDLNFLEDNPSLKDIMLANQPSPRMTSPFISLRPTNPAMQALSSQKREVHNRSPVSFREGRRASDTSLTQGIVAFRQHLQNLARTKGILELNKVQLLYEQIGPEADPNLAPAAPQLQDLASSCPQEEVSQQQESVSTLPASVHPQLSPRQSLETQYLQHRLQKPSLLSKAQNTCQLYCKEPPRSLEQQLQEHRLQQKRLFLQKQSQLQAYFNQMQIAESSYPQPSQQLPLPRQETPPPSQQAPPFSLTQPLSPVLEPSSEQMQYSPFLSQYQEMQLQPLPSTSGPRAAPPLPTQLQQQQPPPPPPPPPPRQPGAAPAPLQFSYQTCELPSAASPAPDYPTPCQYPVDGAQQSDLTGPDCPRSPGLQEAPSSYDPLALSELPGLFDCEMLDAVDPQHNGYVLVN
# [9] = target: T9, MLCK (Homo sapiens, UniProt Q32MK0)
# T9 construct: purchased DiscoveRx KINOMEscan
# [10] = target: T10, CSNK1G3 (Homo sapiens, UniProt Q9Y6M4)
# T10 construct: purchased DiscoveRx KINOMEscan
# [11] = target: T11, RSK2(KD2-C-t.) (Homo sapiens, UniProt P51812)
# T11 construct: RSK2(KD2-C-t.); purchased DiscoveRx KINOMEscan
# T11 sequence (P51812 398-740 limits assumed): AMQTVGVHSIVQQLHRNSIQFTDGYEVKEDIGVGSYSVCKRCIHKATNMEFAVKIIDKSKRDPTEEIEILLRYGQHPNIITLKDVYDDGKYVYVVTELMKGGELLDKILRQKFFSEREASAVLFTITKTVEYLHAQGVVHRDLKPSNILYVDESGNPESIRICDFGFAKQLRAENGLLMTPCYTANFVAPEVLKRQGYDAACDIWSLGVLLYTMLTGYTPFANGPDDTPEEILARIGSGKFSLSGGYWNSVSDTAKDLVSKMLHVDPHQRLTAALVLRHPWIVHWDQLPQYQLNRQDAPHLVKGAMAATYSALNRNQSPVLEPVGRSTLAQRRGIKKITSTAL
# [12] = target: T12, KIT(L576P) (Homo sapiens, UniProt P10721, L576P)
# T12 construct: purchased DiscoveRx KINOMEscan
# [13] = target: T13, EGFR(L747-S752del, P753S) (Homo sapiens, UniProt P00533, DEL747-752/P753S)
# T13 construct: purchased DiscoveRx KINOMEscan
# T13 sequence (P00533 with tags, fused parts or gaps DEL747-752/P753S limits assumed): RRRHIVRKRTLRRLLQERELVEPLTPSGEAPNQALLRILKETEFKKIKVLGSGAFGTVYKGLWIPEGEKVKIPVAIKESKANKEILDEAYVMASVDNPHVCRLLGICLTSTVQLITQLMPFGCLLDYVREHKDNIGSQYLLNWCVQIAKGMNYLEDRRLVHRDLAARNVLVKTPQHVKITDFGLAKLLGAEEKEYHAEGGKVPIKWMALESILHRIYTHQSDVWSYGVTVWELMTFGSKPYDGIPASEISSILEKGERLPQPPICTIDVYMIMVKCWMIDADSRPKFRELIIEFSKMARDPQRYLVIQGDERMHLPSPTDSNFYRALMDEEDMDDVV
# [14] = target: T14, CDK9 (Homo sapiens, UniProt P50750)
# T14 construct: purchased DiscoveRx KINOMEscan
# T14 sequence (P50750 whole entry): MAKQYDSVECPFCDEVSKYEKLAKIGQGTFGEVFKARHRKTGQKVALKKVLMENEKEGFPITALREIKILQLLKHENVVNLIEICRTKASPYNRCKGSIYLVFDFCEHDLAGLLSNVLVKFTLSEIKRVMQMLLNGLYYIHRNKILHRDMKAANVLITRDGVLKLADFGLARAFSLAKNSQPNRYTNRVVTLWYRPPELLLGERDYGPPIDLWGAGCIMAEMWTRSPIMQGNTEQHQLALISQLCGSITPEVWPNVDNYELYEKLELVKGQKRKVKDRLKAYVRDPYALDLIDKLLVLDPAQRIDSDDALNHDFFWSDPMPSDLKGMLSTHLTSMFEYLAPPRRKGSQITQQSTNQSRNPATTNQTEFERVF
# [15] = target: T15, PAK3 (Homo sapiens, UniProt O75914)
# T15 construct: purchased DiscoveRx KINOMEscan
# [16] = target: T16, MTOR (Homo sapiens, UniProt P42345)
# T16 construct: purchased DiscoveRx KINOMEscan
# [17] = target: T17, RIOK1 (Homo sapiens, UniProt Q9BRS2)
# T17 construct: purchased DiscoveRx KINOMEscan
# [18] = target: T18, FGFR3 (Homo sapiens, UniProt P22607)
# T18 construct: purchased DiscoveRx KINOMEscan
# [19] = target: T19, TRKB (Homo sapiens, UniProt Q16620)
# T19 construct: purchased DiscoveRx KINOMEscan
# [20] = target: T20, EGFR(T790M) (Homo sapiens, UniProt P00533, T790M)
# T20 construct: purchased DiscoveRx KINOMEscan
# [21] = target: T21, MLK3 (Homo sapiens, UniProt Q16584)
# T21 construct: purchased DiscoveRx KINOMEscan
# [22] = target: T22, FLT3(D835V) (Homo sapiens, UniProt P36888, D835V)
# T22 construct: purchased DiscoveRx KINOMEscan
# [23] = target: T23, RPS6KA4(KD1-N-t.) (Homo sapiens, UniProt O75676)
# T23 construct: RPS6KA4(KD1-N-t.); purchased DiscoveRx KINOMEscan
# T23 sequence (O75676 1-371 limits assumed): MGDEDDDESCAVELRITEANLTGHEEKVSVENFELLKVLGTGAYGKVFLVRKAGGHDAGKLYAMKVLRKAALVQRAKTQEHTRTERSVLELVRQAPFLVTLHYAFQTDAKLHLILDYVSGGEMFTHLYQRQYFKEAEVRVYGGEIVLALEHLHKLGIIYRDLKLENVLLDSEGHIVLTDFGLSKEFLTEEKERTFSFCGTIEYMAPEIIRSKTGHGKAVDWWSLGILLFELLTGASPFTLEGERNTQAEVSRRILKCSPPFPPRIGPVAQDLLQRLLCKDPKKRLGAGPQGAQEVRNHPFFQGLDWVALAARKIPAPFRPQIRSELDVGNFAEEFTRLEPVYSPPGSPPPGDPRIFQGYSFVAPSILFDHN
# [24] = target: T24, CAMK1B (Homo sapiens, UniProt Q6P2M8)
# T24 construct: purchased DiscoveRx KINOMEscan
# T24 sequence (Q6P2M8 whole entry): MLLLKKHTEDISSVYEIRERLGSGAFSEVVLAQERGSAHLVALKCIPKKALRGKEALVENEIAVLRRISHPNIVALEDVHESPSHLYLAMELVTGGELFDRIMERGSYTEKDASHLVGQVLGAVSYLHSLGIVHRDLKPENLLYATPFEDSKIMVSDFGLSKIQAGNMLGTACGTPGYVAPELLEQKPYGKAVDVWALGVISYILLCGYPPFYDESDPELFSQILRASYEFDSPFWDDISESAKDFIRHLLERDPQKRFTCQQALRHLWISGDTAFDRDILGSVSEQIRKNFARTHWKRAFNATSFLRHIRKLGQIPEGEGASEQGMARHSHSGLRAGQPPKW
compound,measurement,setting,value
CN1CCC(CNc2ccc3ncc(C(=O)Nc4cccc(OC(F)(F)F)c4)n3n2)CC1 [Cpd 2],remaining binding at 1 µM,[1],99%
same,remaining binding at 1 µM,[2],99%
same,remaining binding at 1 µM,[3],83%
same,remaining binding at 1 µM,[4],100%
same,remaining binding at 1 µM,[5],100%
same,remaining binding at 1 µM,[6],96%
same,remaining binding at 1 µM,[7],97%
same,remaining binding at 1 µM,[8],97%
same,remaining binding at 1 µM,[9],100%
same,remaining binding at 1 µM,[10],100%
same,remaining binding at 1 µM,[11],100%
same,remaining binding at 1 µM,[12],88%
same,remaining binding at 1 µM,[13],92%
same,remaining binding at 1 µM,[14],98%
same,remaining binding at 1 µM,[15],98%
same,remaining binding at 1 µM,[16],100%
same,remaining binding at 1 µM,[17],76%
same,remaining binding at 1 µM,[18],98%
same,remaining binding at 1 µM,[19],89%
same,remaining binding at 1 µM,[20],96%
same,remaining binding at 1 µM,[21],100%
same,remaining binding at 1 µM,[22],0.45%
same,remaining binding at 1 µM,[23],92%
same,remaining binding at 1 µM,[24],97%
